Test results reported in patent US20210254272A1, “TEXTILES HAVING ANTIMICROBIAL PROPERTIES” (Livinguard AG, priority 2015, published 2021).

System: E. coli (ATCC 25922)
Experiment: AATCC Test Method 100-2012 antibacterial activity of the treated textile, after 25 washes and 12 abrasion cycles, contact time 60 minutes
Type: cell-based
Details: for Performance Test-Log reduction of antimicrobial performance: pad process, 2 min
Method: The antibacterial activity of the textile was tested in accordance with AATCC Test Method 100-2012. Prior to the test, the fabric was cut into coupons of 2×4 inches and washed separately 25 times, and exposed to 12 abrasion cycles, as per US EPA protocol 90072PA4 (described further below). The tests were made against E. coli (ATCC 25922). Contact time was 60 minutes, after inoculating with 10^8 CFU per coupon.

CCCCCCCCCCCCCCCCCC[N+](C)(C)CCC[Si](OC)(OC)OC [Organosilane, dimethyloctadecyl[3-(trimethoxysilyl)propyl] ammonium chloride]
Performance Test-Log reduction of antimicrobial performance (single agent 5 gm/lit, curing 180° C.): 0.93 Log | Performance Test-Log reduction of antimicrobial performance (single agent 10 gm/lit, curing 120° C.): 0.38 Log | Performance Test-Log reduction of antimicrobial performance (single agent 10 gm/lit, curing 140° C.): 0.53 Log | Performance Test-Log reduction of antimicrobial performance (single agent 10 gm/lit, curing 150° C.): 0.62 Log | Performance Test-Log reduction of antimicrobial performance (single agent 10 gm/lit, curing 160° C.): 0.98 Log | Performance Test-Log reduction of antimicrobial performance (single agent 10 gm/lit, curing 180° C.): 2.21 Log | Log reduction of antimicrobial performance (pure cotton fabric, exhaust 80° C., 60 min, dosage 0.1% o.w.f): 0.81 Log | Log reduction of antimicrobial performance (pure cotton fabric, exhaust 80° C., 60 min, dosage 0.2% o.w.f): 1.67 Log | Log reduction of antimicrobial performance (pure cotton fabric, exhaust 80° C., 60 min, dosage 0.5% o.w.f): 1.83 Log | Log reduction of antimicrobial performance (pure cotton fabric, exhaust 80° C., 60 min, dosage 0.8% o.w.f): 2.17 Log | Log reduction of antimicrobial performance (pure cotton fabric, exhaust 80° C., 60 min, dosage 1.0% o.w.f): 2.56 Log | Log reduction of antimicrobial performance (pure cotton, exhaust 80° C., 1% o.w.f, 60 min, curing 180° C., curing dwell time 0.5 min): 0.3 Log | Log reduction of antimicrobial performance (pure cotton, exhaust 80° C., 1% o.w.f, 60 min, curing 180° C., curing dwell time 1.0 min): 1.1 Log | Log reduction of antimicrobial performance (pure cotton, exhaust 80° C., 1% o.w.f, 60 min, curing 180° C., curing dwell time 1.5 min): 1.8 Log | Log reduction of antimicrobial performance (pure cotton, exhaust 80° C., 1% o.w.f, 60 min, curing 180° C., curing dwell time 2.0 min): 2.5 Log | Log reduction of antimicrobial performance (pure cotton, exhaust 80° C., 1% o.w.f, 60 min, curing 180° C., curing dwell time 2.5 min): 2.4 Log | Log reduction of antimicrobial performance (pure cotton, exhaust 80° C., 1% o.w.f, 60 min, curing 180° C., curing dwell time 3.0 min): 1.4 Log | Log reduction of antimicrobial performance (pure polyester fabric, exhaust 80° C., 60 min, curing 180° C., curing dwell time 0.5 min): 0.4 Log | Log reduction of antimicrobial performance (pure polyester fabric, exhaust 80° C., 60 min, curing 180° C., curing dwell time 1.0 min): 1.2 Log | Log reduction of antimicrobial performance (pure polyester fabric, exhaust 80° C., 60 min, curing 180° C., curing dwell time 1.5 min): 1.7 Log | Log reduction of antimicrobial performance (pure polyester fabric, exhaust 80° C., 60 min, curing 180° C., curing dwell time 2.0 min): 2.75 Log | Log reduction of antimicrobial performance (pure polyester fabric, exhaust 80° C., 60 min, curing 180° C., curing dwell time 2.5 min): 2.45 Log | Log reduction of antimicrobial performance (pure polyester fabric, exhaust 80° C., 60 min, curing 180° C., curing dwell time 3.0 min): 1.3 Log | Log reduction of antimicrobial performance (pure polyester fabric, exhaust 80° C., 60 min, dosage 0.1% o.w.f): 0.72 Log | Log reduction of antimicrobial performance (pure polyester fabric, exhaust 80° C., 60 min, dosage 0.2% o.w.f): 1.65 Log | Log reduction of antimicrobial performance (pure polyester fabric, exhaust 80° C., 60 min, dosage 0.5% o.w.f): 1.75 Log | Log reduction of antimicrobial performance (pure polyester fabric, exhaust 80° C., 60 min, dosage 0.8% o.w.f): 2.16 Log | Log reduction of antimicrobial performance (pure polyester fabric, exhaust 80° C., 60 min, dosage 1.0% o.w.f): 2.58 Log | Log reduction of antimicrobial performance (solution dosage 0.10% o.w.f, exhaust temperature 40° C., process time 60 min): 0 Log | Log reduction of antimicrobial performance (solution dosage 0.10% o.w.f, exhaust temperature 60° C., process time 60 min): 0 Log | Log reduction of antimicrobial performance (solution dosage 0.10% o.w.f, exhaust temperature 65° C., process time 60 min): 0 Log | Log reduction of antimicrobial performance (solution dosage 0.10% o.w.f, exhaust temperature 70° C., process time 60 min): 0 Log | Log reduction of antimicrobial performance (solution dosage 0.10% o.w.f, exhaust temperature 75° C., process time 60 min): 0.63 Log | Log reduction of antimicrobial performance (solution dosage 0.10% o.w.f, exhaust temperature 80° C., process time 60 min): 0.78 Log | Log reduction of antimicrobial performance (solution dosage 0.10% o.w.f, exhaust temperature 85° C., process time 60 min): 0.81 Log | Log reduction of antimicrobial performance (solution dosage 0.10% o.w.f, exhaust temperature 90° C., process time 60 min): 0.82 Log | Log reduction of antimicrobial performance (solution dosage 0.10% o.w.f, exhaust temperature 95° C., process time 60 min): 0.82 Log | Log reduction of antimicrobial performance (solution dosage 0.20% o.w.f, exhaust temperature 40° C., process time 60 min): 0 Log | Log reduction of antimicrobial performance (solution dosage 0.20% o.w.f, exhaust temperature 60° C., process time 60 min): 0.09 Log | Log reduction of antimicrobial performance (solution dosage 0.20% o.w.f, exhaust temperature 65° C., process time 60 min): 0.10 Log | Log reduction of antimicrobial performance (solution dosage 0.20% o.w.f, exhaust temperature 70° C., process time 60 min): 0.17 Log | Log reduction of antimicrobial performance (solution dosage 0.20% o.w.f, exhaust temperature 75° C., process time 60 min): 0.92 Log | Log reduction of antimicrobial performance (solution dosage 0.20% o.w.f, exhaust temperature 80° C., process time 60 min): 1.52 Log | Log reduction of antimicrobial performance (solution dosage 0.20% o.w.f, exhaust temperature 85° C., process time 60 min): 1.65 Log | Log reduction of antimicrobial performance (solution dosage 0.20% o.w.f, exhaust temperature 90° C., process time 60 min): 1.65 Log | Log reduction of antimicrobial performance (solution dosage 0.20% o.w.f, exhaust temperature 95° C., process time 60 min): 1.65 Log | Log reduction of antimicrobial performance (solution dosage 0.50% o.w.f, exhaust temperature 40° C., process time 60 min): 0 Log | Log reduction of antimicrobial performance (solution dosage 0.50% o.w.f, exhaust temperature 60° C., process time 60 min): 0.17 Log | Log reduction of antimicrobial performance (solution dosage 0.50% o.w.f, exhaust temperature 65° C., process time 60 min): 0.18 Log | Log reduction of antimicrobial performance (solution dosage 0.50% o.w.f, exhaust temperature 70° C., process time 60 min): 0.19 Log | Log reduction of antimicrobial performance (solution dosage 0.50% o.w.f, exhaust temperature 75° C., process time 60 min): 1.23 Log | Log reduction of antimicrobial performance (solution dosage 0.50% o.w.f, exhaust temperature 80° C., process time 60 min): 1.78 Log | Log reduction of antimicrobial performance (solution dosage 0.50% o.w.f, exhaust temperature 85° C., process time 60 min): 1.82 Log | Log reduction of antimicrobial performance (solution dosage 0.50% o.w.f, exhaust temperature 90° C., process time 60 min): 1.83 Log | Log reduction of antimicrobial performance (solution dosage 0.50% o.w.f, exhaust temperature 95° C., process time 60 min): 1.83 Log | Log reduction of antimicrobial performance (solution dosage 0.80% o.w.f, exhaust temperature 40° C., process time 60 min): 0 Log | Log reduction of antimicrobial performance (solution dosage 0.80% o.w.f, exhaust temperature 60° C., process time 60 min): 0.23 Log | Log reduction of antimicrobial performance (solution dosage 0.80% o.w.f, exhaust temperature 65° C., process time 60 min): 0.24 Log | Log reduction of antimicrobial performance (solution dosage 0.80% o.w.f, exhaust temperature 70° C., process time 60 min): 0.36 Log | Log reduction of antimicrobial performance (solution dosage 0.80% o.w.f, exhaust temperature 75° C., process time 60 min): 1.32 Log | Log reduction of antimicrobial performance (solution dosage 0.80% o.w.f, exhaust temperature 80° C., process time 60 min): 2.13 Log | Log reduction of antimicrobial performance (solution dosage 0.80% o.w.f, exhaust temperature 85° C., process time 60 min): 2.23 Log | Log reduction of antimicrobial performance (solution dosage 0.80% o.w.f, exhaust temperature 90° C., process time 60 min): 2.34 Log | Log reduction of antimicrobial performance (solution dosage 0.80% o.w.f, exhaust temperature 95° C., process time 60 min): 2.34 Log | Log reduction of antimicrobial performance (solution dosage 1.00% o.w.f, exhaust temperature 40° C., process time 60 min): 0 Log | Log reduction of antimicrobial performance (solution dosage 1.00% o.w.f, exhaust temperature 60° C., process time 60 min): 0.28 Log | Log reduction of antimicrobial performance (solution dosage 1.00% o.w.f, exhaust temperature 65° C., process time 60 min): 0.29 Log | Log reduction of antimicrobial performance (solution dosage 1.00% o.w.f, exhaust temperature 70° C., process time 60 min): 0.42 Log | Log reduction of antimicrobial performance (solution dosage 1.00% o.w.f, exhaust temperature 75° C., process time 60 min): 1.45 Log | Log reduction of antimicrobial performance (solution dosage 1.00% o.w.f, exhaust temperature 80° C., process time 60 min): 2.56 Log | Log reduction of antimicrobial performance (solution dosage 1.00% o.w.f, exhaust temperature 85° C., process time 60 min): 2.69 Log | Log reduction of antimicrobial performance (solution dosage 1.00% o.w.f, exhaust temperature 90° C., process time 60 min): 2.71 Log | Log reduction of antimicrobial performance (solution dosage 1.00% o.w.f, exhaust temperature 95° C., process time 60 min): 2.71 Log
